Here are results for seven compounds from patent publication US20260200921A1, “SUBSTITUTED AMINOPYRIDINE COMPOUNDS AS AKT INHIBITORS” (Atavistik Bio, Inc., priority 2023, published 2026).

In one experiment the target is T1, wildtype AKT1 (Homo sapiens, UniProt P31749).
T1 construct: Purified human recombinant kinase full-length wildtype AKT1 was expressed in insect cells; made in house; host or cells: insect cells
Briefly: AKT1 kinase assay, wildtype (TR-FRET, Lance). In kind it is biochemical. To be noted: full-length human recombinant wildtype AKT1 activated by PDPK1; Ulight-CREBtide substrate; either 50 μM ATP or 2 mM ATP. As for the experimental part:
AKT1 kinase assay: Inhibitory effects of compounds on wildtype AKT1 were undertaken in a 10-pt dose response kinase activity assay measuring phospho-peptide product formation based on TR-FRET signal as described in the following paragraph.
(§1) Purified human recombinant kinase full-length wildtype AKT1 was expressed in insect cells and activated in vitro by PDPK1. Ulight™-CREBtide (PerkinElmer, catalog number TRF0107) was used as the peptide substrate. The reaction buffer consisted of 50 mM HEPES pH 7.5, 10 mM MgCl2, 0.01% Triton X-100, 0.01% BSA, 2 mM DTT, 0.6 nM AKT1, 50 nM Ulight™-CREBtide and either 50 μM ATP or 2 mM ATP. The compound solution was prepared as 10 mM DMSO stock. For the assay, a 1:3 serial dilution 10-pt dose response of test compounds, in duplicate, for each concentration were dispensed into a 384-well plate (Corning, catalog number 4513). Final DMSO concentration in the assay was 1%. The enzyme mixture (5 μL, 1.2 nM) were added and the mixture was incubated for 15 min at RT prior to the start of the kinase reaction by the addition of 5 μL substrate mixture (100 nM Ulight™-CREBtide). The reaction was stopped after 60 min of incubation at RT by the addition of 10 μL of Detection Mix (PerkinElmer. #CR97-100) consisting of Europium-anti-phospho-CREB (Ser133) (Perkin Elmer, catalog numberTRF0200). Incubation with the detection mix for a further 60 min allowed binding of antibody to the phospho-Ulight™ CREBtide. The fluorescence emissions at 620 nm and 665 nm after excitation at 350 nm was measured using Envision reader. The ratio of the emissions at 665 nm and at 620 nm provided the measure for the amount of phosphorylated CREBtide product of AKT1 kinase activity. To determine the IC50 values, the data was normalized (enzyme reaction without inhibitor=0% inhibition, all other assay components but no enzyme=100% inhibition) and IC50 values were calculated by a 4-parameter fit using an in-house developed protocol.
On the technique in general: Time-resolved FRET reads energy transfer from a long-lived donor to a nearby acceptor.

For the next experiment, the target named is T2, AKT1 E17K (Homo sapiens, UniProt P31749, E17K).
T2 construct: Purified human recombinant kinase full-length AKT1 E17K was expressed in insect cells; made in house; host or cells: insect cells
The experiment in a line: AKT1 E17K kinase assay (TR-FRET, Lance). The conditions noted are these: full-length human recombinant AKT1 E17K activated by PDPK1; Ulight-CREBtide substrate; either 50 μM ATP or 2 mM ATP. It is filed as biochemical. As for the experimental part: AKT1 E17K kinase assay: Inhibitory effects of compounds on AKT1 E17K were undertaken in a 10-pt dose response kinase activity assay measuring phospho-peptide product formation based on TR-FRET signal as described in the following paragraph.
as §1, with “full-length” for “full-length wildtype”, “AKT1 E17K” for “AKT1”, “AKT1 E17K,” for “AKT1,”, “(PerkinElmer,” for “(PerkinElmer.”

T2 sequence (P31749 whole entry E17K): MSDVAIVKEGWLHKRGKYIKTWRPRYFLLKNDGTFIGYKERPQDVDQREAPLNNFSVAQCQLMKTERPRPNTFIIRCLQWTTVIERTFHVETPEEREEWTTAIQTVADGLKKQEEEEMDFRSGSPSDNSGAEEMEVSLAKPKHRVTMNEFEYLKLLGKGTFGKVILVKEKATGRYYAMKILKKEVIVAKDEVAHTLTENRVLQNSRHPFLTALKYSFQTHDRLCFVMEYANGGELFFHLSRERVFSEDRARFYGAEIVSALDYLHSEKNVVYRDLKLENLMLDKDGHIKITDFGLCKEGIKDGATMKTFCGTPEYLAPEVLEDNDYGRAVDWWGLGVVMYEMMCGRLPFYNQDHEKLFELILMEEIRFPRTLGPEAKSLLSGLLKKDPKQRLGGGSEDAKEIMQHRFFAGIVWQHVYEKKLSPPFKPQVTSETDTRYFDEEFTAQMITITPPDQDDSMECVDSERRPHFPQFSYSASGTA
T1 sequence (P31749 whole entry): as the sequence (P31749 whole entry E17K) above, with K17E counted along it

In general, IC50 refers to the point on the concentration scale where inhibition reaches its midpoint. With `Cc1nc(NC(=O)c2ccc(-c3nsc(=O)[nH]3)cc2)ccc1-n1c(-c2cccnc2N)nc2ccc(-c3ccccc3)nc21` [Compound I-42, N-(5-(2-(2-aminopyridin-3-yl)-5-phenyl-3H-imidazo[4,5-b]pyridin-3-yl)-6-methylpyridin-2-yl)-4-(5-oxo-4,5-dihydro-1,2,4-thiadiazol-3-yl)benzamide], the concentration for half-maximal inhibition (IC50) at wildtype AKT1 is < 500 nM; at AKT1 E17K, 50 to 200 nM.

Take `Nc1ncccc1-c1nc2ccc(-c3ccccc3)nc2n1-c1ccc(C2CN(C[C@H]3CC[C@H](c4nsc(=O)[nH]4)CC3)C2)cc1` [Compound I-43, 3-((1r,4r)-4-((3-(4-(2-(2-aminopyridin-3-yl)-5-phenyl-3H-imidazo[4,5-b]pyridin-3-yl)phenyl)azetidin-1-yl)methyl)cyclohexyl)-1,2,4-thiadiazol-5(4H)-one]: the IC50 on wildtype AKT1 was < 500 nM; on AKT1 E17K, ≥ 500 nM.

Take `Nc1ncccc1-c1nc2ccc(-c3ccccc3)nc2n1-c1ccc(C2CN(C[C@H]3CC[C@@H](c4nsc(=O)[nH]4)CC3)C2)cc1` [Compound I-44, 3-((1s,4s)-4-((3-(4-(2-(2-aminopyridin-3-yl)-5-phenyl-3H-imidazo[4,5-b]pyridin-3-yl)phenyl)azetidin-1-yl)methyl)cyclohexyl)-1,2,4-thiadiazol-5(4H)-one]: the IC50 is < 500 nM on wildtype AKT1 and ≥ 500 nM on AKT1 E17K.

Consider `Nc1ncccc1-c1nc2ccc(-c3ccccc3)nc2n1-c1ccc(C2CCN(C[C@H]3CC[C@H](c4nsc(=O)[nH]4)CC3)CC2)cc1` [Compound I-45, 3-((1r,4r)-4-((4-(4-(2-(2-aminopyridin-3-yl)-5-phenyl-3H-imidazo[4,5-b]pyridin-3-yl)phenyl)piperidin-1-yl)methyl)cyclohexyl)-1,2,4-thiadiazol-5(4H)-one], for which the IC50 on wildtype AKT1 was < 500 nM; at AKT1 E17K, ≥ 500 nM.

For the compound `Nc1ncccc1-c1nc2ccc(-c3ccccc3)nc2n1-c1ccc(C2CCN(C[C@H]3CC[C@@H](c4nsc(=O)[nH]4)CC3)CC2)cc1` [Compound I-46, 3-((1s,4s)-4-((4-(4-(2-(2-aminopyridin-3-yl)-5-phenyl-3H-imidazo[4,5-b]pyridin-3-yl)phenyl)piperidin-1-yl)methyl)cyclohexyl)-1,2,4-thiadiazol-5(4H)-one], the IC50 was < 500 nM on wildtype AKT1 and ≥ 500 nM on AKT1 E17K.

With `CN(Cc1ccc(-n2c(-c3cccnc3N)nc3ccc(-c4ccccc4)nc32)cc1)[C@H]1CC[C@H](c2nsc(=O)[nH]2)CC1` [Compound I-47, 3-((1r,4r)-4-((4-(2-(2-aminopyridin-3-yl)-5-phenyl-3H-imidazo[4,5-b]pyridin-3-yl)benzyl)(methyl)amino)cyclohexyl)-1,2,4-thiadiazol-5(4H)-one], the figures for the IC50 on wildtype AKT1 and at AKT1 E17K were < 500 nM and ≥ 500 nM, respectively.

In the case of `CN(Cc1ccc(-n2c(-c3cccnc3N)nc3ccc(-c4ccccc4)nc32)cc1)[C@H]1CC[C@@H](c2nsc(=O)[nH]2)CC1` [Compound I-48, 3-((1s,4s)-4-((4-(2-(2-aminopyridin-3-yl)-5-phenyl-3H-imidazo[4,5-b]pyridin-3-yl)benzyl)(methyl)amino)cyclohexyl)-1,2,4-thiadiazol-5(4H)-one], the IC50 is < 500 nM at wildtype AKT1 and 50 to 200 nM on AKT1 E17K.
